Experimental data reported in article PMC12615863, “Improving GRPR-targeting peptides for radiotheranostics application: insights from chelator modifications and α-methyl-L tryptophan substitution” (EJNMMI Radiopharmacy and Chemistry, 2025).
Read-outs that look alike come from different tables or passages of the source.

Tests used:
PC-3 cells = assay: In vitro GRPR specificity assay (uptake with or without NOTA-PEG2-RM26 block); assay type: cell-based, human
Method: After discarding the medium, the cells were washed with cold (4 °C) phosphate-buffered saline containing 1% w/v bovine serum albumin (PBS/BSA). The radiopeptides (Cf = 1 nM in 1 mL PBS/BSA) were added to all wells. A subset of wells was also treated with an excess of unlabeled GRPR-binding peptide NOTA-PEG2-RM26 (Bjäreback et al. [2025]) (Cf = 1 µM in 1 mL PBS/BSA) to block GRPR. After incubation for 1 h at 37 °C, the supernatant was removed, and the cells were washed and then collected by treating them with 1 M NaOH. The activity of the collected samples was measured with the gamma counter. This assay was performed in triplicate for each radiopeptide.

[1] = Biodistribution in mice bearing PC-3 xenografts; assay type: in vivo, Balb/c nu/nu mice; conditions: mouse, total radioactivity; for tissue uptake at 4 h / tissue uptake dose at 4 h: 4 h pi; for tissue uptake at 24 h / tissue uptake dose at 24 h: 24 h pi
Method: (§1) Each mouse was xenografted with a subcutaneous injection of 8 × 10⁶ PC-3 cells in the right hind leg. After approximately 4 weeks, the animals were injected into the tail vein with 100 µL of radiopeptide (100 pmol—110–130 kBq, diluted in PBS/BSA). Four animals were used for each time point per peptide. […] At the determined time points, the mice were euthanized, organs were collected and weighed, and their activity content was measured in the gamma counter. Results were presented as the percentage of injected activity per gram (%IA/g) for the collected organs, and the percentage of injected activity (%IA) for the gastrointestinal tract (GI) and the carcass. […] Statistical analysis was performed with GraphPad Prism 10 using two way ANOVA with Tuckey’s or Šidák’a post hoc analysis.

PC-3 xenografts = assay: Biodistribution in mice bearing PC-3 xenografts; assay type: in vivo, Balb/c nu/nu mice; conditions: PC-3 xenografted mice, between 4 and 24 h pi
Method: as §1

[2] = In vivo stability: intact radiopeptide in peripheral mouse blood 5 min pi, radio-HPLC; conditions: for Percentage of intact peptide, Entresto: blood 5 min pi
Method: Two animals per peptide were injected intravenously with a bolus of test radioligand (50 MBq, 2 nmol of peptide in 100 μL PBS/EtOH v/v 9:1) – Control group. To inhibit NEP, additional groups of two mice per compound were orally treated with 12 mg Entresto® (Novartis, Basel, Switzerland) 30 min before receiving the intravenous injection—Entresto group. Five minutes post-injection (pi), the animals were euthanized, and the blood was collected and immediately mixed with EDTA (0.1 mM, 40 μL) in Eppendorf tubes on ice. The mixture was spun at 2000 g for 10 min at 4 °C in an Eppendorf Centrifuge 5430 R (Eppendorf AG, Hamburg, Germany), and the plasma was collected and diluted with an equal volume of MeCN (4 °C). After a second centrifugation at 15,000 g and 4 °C for 10 min, the supernatant was collected in an Eppendorf tube and concentrated to 50–100 μL at 50 °C using a mild stream of N2. PBS was added to the samples to reach a final volume of 200 μL, and the solutions were filtered through a syringe filter (0.22 μm, 13 mm, VWR International, Radnor, USA). The filtered solution was analyzed by reversed-phase radio-HPLC to determine the percentage of intact peptides. The peak corresponding to the intact peptide was identified by injection of an aliquot of the labeling solution.

[3] = Balb/c nu/nu, blood, iv, 100 pmol, PC-3 xenografted Balb/c nu/nu mice, iv 100 pmol, mean ± SD, n = 4, read-out: Blood activity uptake
[4] = Balb/c nu/nu, bone, iv, 100 pmol, PC-3 xenografted Balb/c nu/nu mice, iv 100 pmol, mean ± SD, n = 4, read-out: Bone activity uptake
[5] = Balb/c nu/nu, kidneys, iv, 100 pmol, PC-3 xenografted Balb/c nu/nu mice, iv 100 pmol, mean ± SD, n = 4, read-out: Kidneys activity uptake
[6] = Balb/c nu/nu, liver, iv, 100 pmol, PC-3 xenografted Balb/c nu/nu mice, iv 100 pmol, mean ± SD, n = 4, read-out: Liver activity uptake
[7] = Balb/c nu/nu, lungs, iv, 100 pmol, PC-3 xenografted Balb/c nu/nu mice, iv 100 pmol, mean ± SD, n = 4, read-out: Lungs activity uptake
[8] = Balb/c nu/nu, muscle, iv, 100 pmol, PC-3 xenografted Balb/c nu/nu mice, iv 100 pmol, mean ± SD, n = 4, read-out: Muscle activity uptake
[9] = Balb/c nu/nu, pancreas, iv, 100 pmol, PC-3 xenografted Balb/c nu/nu mice, iv 100 pmol, mean ± SD, n = 4, read-out: Pancreas activity uptake
[10] = Balb/c nu/nu, small intestine, iv, 100 pmol, PC-3 xenografted Balb/c nu/nu mice, iv 100 pmol, mean ± SD, n = 4, read-out: Small Int. activity uptake
[11] = Balb/c nu/nu, spleen, iv, 100 pmol, PC-3 xenografted Balb/c nu/nu mice, iv 100 pmol, mean ± SD, n = 4, read-out: Spleen activity uptake
[12] = Balb/c nu/nu, stomach, iv, 100 pmol, PC-3 xenografted Balb/c nu/nu mice, iv 100 pmol, mean ± SD, n = 4, read-out: Stomach activity uptake
[13] = Balb/c nu/nu, tumor, iv, 100 pmol, PC-3 xenografted Balb/c nu/nu mice, iv 100 pmol, mean ± SD, n = 4, read-out: Tumor activity uptake
[14] = carcass, PC-3 xenografted Balb/c nu/nu mice, iv 100 pmol, mean ± SD, n = 4, read-out: Body activity uptake
[15] = gastrointestinal tract with content, PC-3 xenografted Balb/c nu/nu mice, iv 100 pmol, mean ± SD, n = 4, read-out: GI activity uptake

tissue uptake at 2 h ([1]; Balb/c nu/nu, blood, iv, 100 pmol, PC-3 xenografted Balb/c nu/nu mice, iv 100 pmol, 2 h pi, mean ± SD, n = 4, read-out: Blood activity uptake): 0.13 ± 0.05 %ID/g
tissue uptake at 4 h [1, 3]: 0.07 ± 0.03 %ID/g
tissue uptake at 24 h [1, 3]: 0.01 ± 0.01 %ID/g
tissue uptake at 2 h ([1]; Balb/c nu/nu, blood, iv, PC-3 xenografted Balb/c nu/nu mice, iv 100 pmol, 2 h pi blocked (co-injected 100-fold molar excess NOTA-PEG2-RM26), mean ± SD, n = 3, read-out: Blood activity uptake): 0.06 ± 0.02 %ID/g
tissue uptake at 2 h ([1]; Balb/c nu/nu, blood, lungs, spleen, muscle, bone, iv, 100 pmol, PC-3 xenografted mice, 2 h pi, read-out: activity uptake in non-target organs (blood, lungs, spleen, muscle, and bone)): < 0.6 %ID/g
tissue uptake at 2 h ([1]; Balb/c nu/nu, bone, iv, 100 pmol, PC-3 xenografted Balb/c nu/nu mice, iv 100 pmol, 2 h pi, mean ± SD, n = 4, read-out: Bone activity uptake): 0.13 ± 0.07 %ID/g
tissue uptake at 4 h [1, 4]: 0.14 ± 0.05 %ID/g
tissue uptake at 24 h [1, 4]: 0.09 ± 0.04 %ID/g
tissue uptake at 2 h ([1]; Balb/c nu/nu, bone, iv, PC-3 xenografted Balb/c nu/nu mice, iv 100 pmol, 2 h pi blocked (co-injected 100-fold molar excess NOTA-PEG2-RM26), mean ± SD, n = 3, read-out: Bone activity uptake): 0.13 ± 0.03 %ID/g
tissue uptake dose ([1]; Balb/c nu/nu, gastrointestinal tract with content, iv, 100 pmol, PC-3 xenografted mice, all time points (2, 4, 24 h pi), read-out: activity uptake for the GI with content): < 2 %ID
tissue uptake at 2 h ([1]; Balb/c nu/nu, kidneys, iv, 100 pmol, PC-3 xenografted Balb/c nu/nu mice, iv 100 pmol, 2 h pi, mean ± SD, n = 4, read-out: Kidneys activity uptake): 8.9 ± 2.5 %ID/g
tissue uptake at 4 h [1, 5]: 9.5 ± 2.1 %ID/g
tissue uptake at 24 h [1, 5]: 5.5 ± 0.6 %ID/g
tissue uptake at 2 h ([1]; Balb/c nu/nu, kidneys, iv, PC-3 xenografted Balb/c nu/nu mice, iv 100 pmol, 2 h pi blocked (co-injected 100-fold molar excess NOTA-PEG2-RM26), mean ± SD, n = 3, read-out: Kidneys activity uptake): 7.6 ± 1.2 %ID/g
tissue uptake at 2 h ([1]; Balb/c nu/nu, liver, iv, 100 pmol, PC-3 xenografted Balb/c nu/nu mice, iv 100 pmol, 2 h pi, mean ± SD, n = 4, read-out: Liver activity uptake): 0.24 ± 0.05 %ID/g
tissue uptake at 4 h [1, 6]: 0.2 ± 0.03 %ID/g
tissue uptake at 24 h [1, 6]: 0.14 ± 0.02 %ID/g
tissue uptake at 2 h ([1]; Balb/c nu/nu, liver, iv, PC-3 xenografted Balb/c nu/nu mice, iv 100 pmol, 2 h pi blocked (co-injected 100-fold molar excess NOTA-PEG2-RM26), mean ± SD, n = 3, read-out: Liver activity uptake): 0.2 ± 0.02 %ID/g
tissue uptake at 4 h [1, 7]: 0.3 ± 0.2 %ID/g
tissue uptake at 24 h [1, 7]: 0.07 ± 0.01 %ID/g
tissue uptake at 2 h ([1]; Balb/c nu/nu, lungs, iv, PC-3 xenografted Balb/c nu/nu mice, iv 100 pmol, 2 h pi blocked (co-injected 100-fold molar excess NOTA-PEG2-RM26), mean ± SD, n = 3, read-out: Lungs activity uptake): 0.21 ± 0.03 %ID/g
tissue uptake at 2 h ([1]; Balb/c nu/nu, muscle, iv, 100 pmol, PC-3 xenografted Balb/c nu/nu mice, iv 100 pmol, 2 h pi, mean ± SD, n = 4, read-out: Muscle activity uptake): 0.07 ± 0.06 %ID/g
tissue uptake at 4 h [1, 8]: 0.05 ± 0.02 %ID/g
tissue uptake at 24 h [1, 8]: 0.02 ± 0.01 %ID/g
tissue uptake at 2 h ([1]; Balb/c nu/nu, muscle, iv, PC-3 xenografted Balb/c nu/nu mice, iv 100 pmol, 2 h pi blocked (co-injected 100-fold molar excess NOTA-PEG2-RM26), mean ± SD, n = 3, read-out: Muscle activity uptake): 0.04 ± 0.01 %ID/g
tissue uptake at 2 h ([1]; Balb/c nu/nu, pancreas, iv, 100 pmol, PC-3 xenografted Balb/c nu/nu mice, iv 100 pmol, 2 h pi, mean ± SD, n = 4, read-out: Pancreas activity uptake): 7.3 ± 3 %ID/g
tissue uptake at 4 h [1, 9]: 2.9 ± 1 %ID/g
tissue uptake at 24 h [1, 9]: 0.43 ± 0.09 %ID/g
tissue uptake at 2 h ([1]; Balb/c nu/nu, small intestine, iv, 100 pmol, PC-3 xenografted Balb/c nu/nu mice, iv 100 pmol, 2 h pi, mean ± SD, n = 4, read-out: Small Int. activity uptake): 0.8 ± 0.5 %ID/g
tissue uptake at 4 h [1, 10]: 0.5 ± 0.2 %ID/g
tissue uptake at 24 h [1, 10]: 0.07 ± 0.04 %ID/g
tissue uptake at 2 h ([1]; Balb/c nu/nu, small intestine, iv, PC-3 xenografted Balb/c nu/nu mice, iv 100 pmol, 2 h pi blocked (co-injected 100-fold molar excess NOTA-PEG2-RM26), mean ± SD, n = 3, read-out: Small Int. activity uptake): 0.3 ± 0.1 %ID/g
tissue uptake at 2 h ([1]; Balb/c nu/nu, spleen, iv, 100 pmol, PC-3 xenografted Balb/c nu/nu mice, iv 100 pmol, 2 h pi, mean ± SD, n = 4, read-out: Spleen activity uptake): 0.15 ± 0.07 %ID/g
tissue uptake at 4 h [1, 11]: 0.15 ± 0.06 %ID/g
tissue uptake at 24 h [1, 11]: 0.11 ± 0.04 %ID/g
tissue uptake at 2 h ([1]; Balb/c nu/nu, spleen, iv, PC-3 xenografted Balb/c nu/nu mice, iv 100 pmol, 2 h pi blocked (co-injected 100-fold molar excess NOTA-PEG2-RM26), mean ± SD, n = 3, read-out: Spleen activity uptake): 0.12 ± 0.04 %ID/g
tissue uptake at 4 h [1, 12]: 1.3 ± 0.2 %ID/g
tissue uptake at 24 h [1, 12]: 0.14 ± 0.07 %ID/g
tissue uptake at 2 h ([1]; Balb/c nu/nu, stomach, iv, PC-3 xenografted Balb/c nu/nu mice, iv 100 pmol, 2 h pi blocked (co-injected 100-fold molar excess NOTA-PEG2-RM26), mean ± SD, n = 3, read-out: Stomach activity uptake): 0.36 ± 0.07 %ID/g
tissue uptake at 2 h ([1]; Balb/c nu/nu, stomach, small intestines, iv, 100 pmol, PC-3 xenografted mice, 2 h pi, read-out: activity uptake in the stomach and small intestines): < 2.5 %ID/g
tissue uptake at 2 h ([1]; Balb/c nu/nu, tumor, iv, 100 pmol, PC-3 xenografted Balb/c nu/nu mice, iv 100 pmol, 2 h pi, mean ± SD, n = 4, read-out: Tumor activity uptake): 15.8 ± 3.7 %ID/g
tissue uptake at 4 h [1, 13]: 15.3 ± 1.4 %ID/g
tissue uptake at 24 h [1, 13]: 12.1 ± 1.3 %ID/g
tissue uptake at 2 h ([1]; Balb/c nu/nu, tumor, iv, PC-3 xenografted Balb/c nu/nu mice, iv 100 pmol, 2 h pi blocked (co-injected 100-fold molar excess NOTA-PEG2-RM26), mean ± SD, n = 3, read-out: Tumor activity uptake): 3.1 ± 0.9 %ID/g
tissue uptake dose at 2 h ([1]; carcass, PC-3 xenografted Balb/c nu/nu mice, iv 100 pmol, 2 h pi, mean ± SD, n = 4, read-out: Body activity uptake): 1.8 ± 1.3 %ID
tissue uptake dose at 4 h [1, 14]: 2.3 ± 0.8 %ID
tissue uptake dose at 24 h [1, 14]: 0.5 ± 0.1 %ID
tissue uptake dose at 2 h ([1]; gastrointestinal tract with content, PC-3 xenografted Balb/c nu/nu mice, iv 100 pmol, 2 h pi, mean ± SD, n = 4, read-out: GI activity uptake): 1.5 ± 0.4 %ID
tissue uptake dose at 4 h [1, 15]: 0.7 ± 0.2 %ID
tissue uptake dose at 24 h [1, 15]: 0.3 ± 0.2 %ID
tumor retention of activity (PC-3 xenografts): around 80%
Percentage of intact peptide, Entresto ([2]; NMRI mice, 12 mg Entresto orally 30 min before injection, recorded value n1): 92%
Percentage of intact peptide, Entresto ([2]; NMRI mice, 12 mg Entresto orally 30 min before injection, recorded value n2): 94%
Percentage of intact peptide, Entresto ([2]; healthy NMRI mice, 12 mg Entresto orally 30 min before iv injection (NEP inhibition), radio-HPLC, mean of n = 2): 93%
Percentage of intact peptide, Control ([2]; healthy NMRI mice, iv 50 MBq, 2 nmol, peripheral blood 5 min pi, radio-HPLC, mean of n = 2): 85% [81% - 90%]
SMILES: CC(C)C[C@H](NC(=O)C[C@H](O)[C@H](CC(C)C)NC(=O)[C@H](Cc1c[nH]cn1)NC(=O)CN(C)C(=O)[C@@H](NC(=O)[C@H](C)NC(=O)[C@](C)(Cc1c[nH]c2ccccc12)NC(=O)[C@H](CCC(N)=O)NC(=O)[C@@H](Cc1ccccc1)NC(=O)CN1CCC(NC(=O)COCCOCCNC(=O)CCC(C(=O)O)N2CCN(CC(=O)O)CCN(CC(=O)O)CCN(CC(=O)O)CC2)CC1)C(C)C)C(N)=O (stereo partly drawn) [[^177Lu]Lu-PKB2, metal not drawn]
in vitro binding specificity (PC-3 cells; 1 nM radiopeptide, 1 h at 37 °C, block with 1 µM NOTA-PEG2-RM26, n = 3): GRPR-mediated activity uptake
total cellular activity uptake (rank among the three radiopeptides) (PC-3 cells; 1 nM, 37 °C, n = 3): lowest
